# Results: US20250130221A1, “METHOD OF IDENTIFYING AGENTS FOR THE TREATMENT OF CYSTIC FIBROSIS CAUSED BY THE MUTATION F508DEL” (FACULDADE DE CIÊNCIAS DA UNIVERSIDADE DE LISBOA, priority 2022, published 2025)
# Experiments:
# F508del-CFTR [1] = biological target: T1, F508del-CFTR (Homo sapiens, UniProt P13569, DEL508-508); assay: Western blot of F508del-CFTR processing (bands B and C) in CFBE cells; format: cell-based; details: for F508del-CFTR band C rescue: CFBE cells stably expressing F508del-CFTR, vs DMSO, n=3; for additivity to CFTR correctors, bands C and B: 1 μM with VX-661 (5 μM), VX-445 (3 μM) or VX-661+VX-445, n=4; for CFTR processing [C/(B+C)]: dose-response 0-1 μM, proportional increase in band B
# T1 construct: expressed in transfected cells; host or cells: CFBE41o- cells constitutively (stably) expressing F508del-CFTR
# T1 sequence (P13569 with tags, fused parts or gaps DEL508-508): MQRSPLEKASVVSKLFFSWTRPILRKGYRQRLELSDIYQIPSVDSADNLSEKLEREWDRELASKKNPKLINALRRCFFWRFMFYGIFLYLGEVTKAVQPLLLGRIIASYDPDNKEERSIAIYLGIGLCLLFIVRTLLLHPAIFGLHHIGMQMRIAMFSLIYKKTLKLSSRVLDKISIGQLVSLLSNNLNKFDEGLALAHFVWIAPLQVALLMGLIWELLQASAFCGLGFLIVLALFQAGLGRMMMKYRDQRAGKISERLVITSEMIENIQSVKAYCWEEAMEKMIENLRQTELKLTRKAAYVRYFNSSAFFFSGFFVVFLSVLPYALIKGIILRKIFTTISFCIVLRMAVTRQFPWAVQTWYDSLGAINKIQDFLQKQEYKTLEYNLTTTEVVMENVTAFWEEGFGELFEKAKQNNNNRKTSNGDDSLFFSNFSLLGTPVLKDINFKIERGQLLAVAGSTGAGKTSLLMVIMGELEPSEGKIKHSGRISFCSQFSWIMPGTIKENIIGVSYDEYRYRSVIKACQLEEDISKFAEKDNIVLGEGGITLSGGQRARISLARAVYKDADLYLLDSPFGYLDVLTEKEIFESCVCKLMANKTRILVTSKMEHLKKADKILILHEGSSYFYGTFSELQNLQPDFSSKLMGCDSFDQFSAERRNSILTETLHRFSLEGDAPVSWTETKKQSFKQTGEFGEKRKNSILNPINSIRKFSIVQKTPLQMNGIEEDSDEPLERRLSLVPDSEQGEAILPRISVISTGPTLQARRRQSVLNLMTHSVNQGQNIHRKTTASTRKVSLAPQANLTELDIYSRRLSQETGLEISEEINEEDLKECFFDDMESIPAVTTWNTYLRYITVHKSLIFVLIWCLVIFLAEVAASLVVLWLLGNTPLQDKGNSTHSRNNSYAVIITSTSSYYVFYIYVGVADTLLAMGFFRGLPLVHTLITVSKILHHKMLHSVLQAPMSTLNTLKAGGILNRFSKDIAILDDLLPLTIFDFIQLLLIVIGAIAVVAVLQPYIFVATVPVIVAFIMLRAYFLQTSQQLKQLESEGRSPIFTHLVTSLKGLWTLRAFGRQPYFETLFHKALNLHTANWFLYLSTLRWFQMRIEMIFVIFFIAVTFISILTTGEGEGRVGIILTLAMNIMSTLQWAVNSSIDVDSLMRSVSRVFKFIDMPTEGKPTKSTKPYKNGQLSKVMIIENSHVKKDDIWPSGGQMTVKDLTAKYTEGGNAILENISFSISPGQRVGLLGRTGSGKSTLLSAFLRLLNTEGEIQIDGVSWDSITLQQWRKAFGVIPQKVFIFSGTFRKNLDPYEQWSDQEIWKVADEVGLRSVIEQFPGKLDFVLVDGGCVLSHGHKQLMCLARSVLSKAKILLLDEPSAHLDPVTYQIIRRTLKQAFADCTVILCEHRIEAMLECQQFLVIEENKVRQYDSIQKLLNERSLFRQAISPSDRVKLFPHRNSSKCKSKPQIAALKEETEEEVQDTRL
# F508del-CFTR [2] = biological target: T1, F508del-CFTR; assay: Halide-sensitive YFP fluorescence quenching in CFBE cells expressing F508del-CFTR; format: cell-based; details: for additivity to CFTR correctors, HS-YFP quenching rate (F508del-CFTR functional rescue): 1 μM with VX-661 (5 μM), VX-445 (3 μM) or VX-661+VX-445, n=4
# Experimental: CFBE41o- cells constitutively co-expressing the HS-yellow fluorescent protein (HS-YFP) YFP-H148Q/I152L as well as wt- or F508del-CFTR (described in (Sondo et al., 2011)) were a kind gift from Dr Nicoletta Pedemonte (IRCCS Istituto G. Gaslini, Genoa, Italy). These cells were cultured in Minimum Essential Medium (MEM) supplemented with 10% FBS, 2 mM L-glutamine, puromycin 2 μg/ml and G418 […] (Sigma, #A1720) at 37° C. in 5% CO2.
# This assay was used to assess whether the enhanced F508del-CFTR traffic recorded when the reporter cell line was transfected with confirmed hit siRNAs also corresponded to enhanced F508del-CFTR ionic transport function. As in the microscopy-based screens, a 72 h siRNA transfection time was selected. The assay followed a previously reported protocol (Sondo et al., 2011). CFBE cells co-expressing HS-YFP and wt- or F508del-CFTR were grown to confluency (37° C., 5% CO2) and split to 50% confluency. On the following day, the experiment was initiated by seeding cells onto siRNA-coated 96 well plates using a peristaltic pump (ThermoFisher Multidrop™ Combi). Each well was seeded with 10,000 cells. […] After the stimulation period, each plate was transferred to a fluorescence plate reader equipped with fast reagent injectors (Tecan Infinite F200 Pro) and excitation (BP 475-495 nm) and emission ([…]) filters suitable for YFP fluorescence. Each assay consisted of a continuous 16 s fluorescence reading with 2 s before and 14 s after injection of 160 μl of a PBS where Cl^− had been replaced by I^− (final I^− concentration in the well: 100 mM). The pH of all PBS-containing solutions was rigorously set at pH 7.4 immediately before use to avoid artifacts in the fluorescence reading. The resulting kinetics was background subtracted and normalized to the pre-injection fluorescence value. To determine the fluorescence quenching rate associated with I^− influx, the final 14 s of the kinetics in each well were fitted with a single decay exponential curve and the derivative at the injection time (i.e. the quenching rate) was extracted from the curve parameters. […]
# [3] = system: CFBE cells expressing F508del-CFTR; assay: Cellular toxicity in CFBE cells during dose-response WB assay; format: cell-based, human; details: concentrations higher than 1 μM
# GRK5 = details: covalent binding; cited from earlier work
# GRK2 [4] = biological target: T2, GRK2 (Homo sapiens, UniProt P25098); details: GRK5 over GRK2; cited from earlier work
# T2 sequence (P25098 1-689): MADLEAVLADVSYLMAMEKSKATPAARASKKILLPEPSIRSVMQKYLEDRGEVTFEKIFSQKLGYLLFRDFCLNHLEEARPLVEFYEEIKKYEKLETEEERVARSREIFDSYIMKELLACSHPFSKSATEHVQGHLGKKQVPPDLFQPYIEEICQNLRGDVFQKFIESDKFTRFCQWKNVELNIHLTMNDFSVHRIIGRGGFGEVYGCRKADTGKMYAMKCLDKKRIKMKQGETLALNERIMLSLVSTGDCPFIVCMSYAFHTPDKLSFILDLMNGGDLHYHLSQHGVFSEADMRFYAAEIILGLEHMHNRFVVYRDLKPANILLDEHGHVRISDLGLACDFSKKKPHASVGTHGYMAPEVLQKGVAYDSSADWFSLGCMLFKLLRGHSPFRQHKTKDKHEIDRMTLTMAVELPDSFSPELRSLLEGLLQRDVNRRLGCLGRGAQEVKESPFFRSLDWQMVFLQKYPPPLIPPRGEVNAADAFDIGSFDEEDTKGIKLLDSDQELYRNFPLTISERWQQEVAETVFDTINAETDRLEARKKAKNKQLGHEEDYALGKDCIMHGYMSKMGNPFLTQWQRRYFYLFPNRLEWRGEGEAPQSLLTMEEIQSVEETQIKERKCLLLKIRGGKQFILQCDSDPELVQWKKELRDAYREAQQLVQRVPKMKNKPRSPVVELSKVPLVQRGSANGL
# GRK2 [5] = details: cited from earlier work
# GRK1 = biological target: T3, GRK1 (Bos taurus, UniProt P28327); details: cited from earlier work
# T3 sequence (P28327 1-561): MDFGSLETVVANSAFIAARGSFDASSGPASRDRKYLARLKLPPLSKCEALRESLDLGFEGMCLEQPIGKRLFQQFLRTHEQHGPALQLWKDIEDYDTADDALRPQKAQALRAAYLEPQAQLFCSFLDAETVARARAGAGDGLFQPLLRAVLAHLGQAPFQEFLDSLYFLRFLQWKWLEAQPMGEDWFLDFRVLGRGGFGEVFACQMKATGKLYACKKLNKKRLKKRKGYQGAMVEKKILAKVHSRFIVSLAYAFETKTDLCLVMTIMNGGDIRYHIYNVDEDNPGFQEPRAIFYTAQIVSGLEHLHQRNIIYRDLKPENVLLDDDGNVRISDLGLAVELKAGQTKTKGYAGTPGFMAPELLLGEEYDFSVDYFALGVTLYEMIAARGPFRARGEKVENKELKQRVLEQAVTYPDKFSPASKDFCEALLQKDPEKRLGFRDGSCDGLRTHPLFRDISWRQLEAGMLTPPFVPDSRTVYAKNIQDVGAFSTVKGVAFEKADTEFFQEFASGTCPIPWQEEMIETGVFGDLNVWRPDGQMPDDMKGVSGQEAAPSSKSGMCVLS
# PKA = details: statement in words; cited from earlier work
# [6] = listed as (R,Z)-3-((4-(2-Bromoacetamido)-3,5-dimethyl-1H-pyrrol-2-yl)-methylene)-2-oxo-N-
smiles,measurement,setting,value
"Cc1[nH]c(/C=C2\C(=O)Nc3ccc(C(=O)N[C@H](C)c4ccccc4)cc32)c(C)c1NC(=O)CBr [9 g, (R,Z)-3-((4-(2-Bromoacetamido)-3,5-dimethyl-1H-pyrrol-2-yl)-methylene)-2-oxo-N-(1-phenylethyl)indoline-5-carboxamide]",F508del-CFTR band C rescue,F508del-CFTR [1]; 0.3 μM,Statistically significant band C rescue
same,F508del-CFTR band C rescue,"F508del-CFTR [1]; 0.3 μM, listed as (R,Z)-3-((4-(2-Bromoacetamido)-3,5-dimethyl-1H-pyrrol-2-yl)-methylene)-2-oxo-N-",statistically significant band C rescue
same,"additivity to CFTR correctors, bands C and B",F508del-CFTR [1],additive to all corrector treatments regarding bands C and B
same,"additivity to CFTR correctors, bands C and B",F508del-CFTR [1]; [6],additivity
same,F508del-CFTR band C rescue,F508del-CFTR [1]; 1.0 μM,Statistically significant band C rescue
same,F508del-CFTR band C rescue,"F508del-CFTR [1]; 1.0 μM, listed as (R,Z)-3-((4-(2-Bromoacetamido)-3,5-dimethyl-1H-pyrrol-2-yl)-methylene)-2-oxo-N-",statistically significant band C rescue
same,band C rescue relative to VX-661,F508del-CFTR [1]; at 0.3 and 1.0 μM,50 % of VX-661
same,CFTR processing [C/(B+C)],F508del-CFTR [1],not significantly changed
same,CFTR processing [C/(B+C)],F508del-CFTR [1]; [6],without improved CFTR processing
same,F508del-CFTR processing rescue,F508del-CFTR [1]; low micromolar concentrations,significant F508del-CFTR processing and function rescue
same,additivity of rescue to correctors (summary statement),"F508del-CFTR [1]; low micromolar concentrations, VX-809, VX-445 and VX-661","additive to VX-809, VX-445 and VX-661"
same,"additivity to CFTR correctors, HS-YFP quenching rate (F508del-CFTR functional rescue)",F508del-CFTR [2],additive to all corrector treatments regarding F508del-CFTR functional rescue
same,"additivity to CFTR correctors, HS-YFP quenching rate (F508del-CFTR functional rescue)",F508del-CFTR [2]; [6],additivity in all conditions
same,F508del-CFTR function rescue,F508del-CFTR [2]; low micromolar concentrations,significant F508del-CFTR processing and function rescue
same,cellular toxicity,[3],cellular toxicity
same,IC50,GRK5,8.6 nM
same,selectivity against GRK2,GRK2 [4],1400 fold
CC1=C(C(=O)Nc2ccc3[nH]ncc3c2)C(c2ccc(F)c(C(=O)NCc3ccccn3)c2)NC(=O)N1 (stereo not drawn) [CCG215022],IC50,GRK2 [5],150 ± 70 nM
same,IC50,GRK1,3900 ± 1000 nM
same,effect on GRK1,GRK1; statement in words,does not affect
same,effect on PKA,PKA,does not affect
